These results are taken from ChEMBL document CHEMBL1201862, “PubChem BioAssay data set” (2004).

Active and inactive are the calls of the source.

Assay [1] addresses PglD (Campylobacter jejuni, UniProt O86157). The assay can be described thus: PglD acetyltransferase inhibitors, dose response, biochemical, DTNB absorbance, cherry-picked samples, set 2 (AID 624257). The class given is functional.
Assay [2] concerns the target Steroidogenic factor 1 (Homo sapiens, UniProt Q13285). The assay can be described thus: Counterscreen for inverse agonists of the liver receptor homolog-1 (LRH-1; NR5A2): Luminescence-based cell-based high throughput dose response assay to identify inverse agonists of the Steroidogenic Factor 1 Nuclear Receptor (SF1; NR5A1). The class given is functional. Background: A counterscreen serves to expose hits that act by an unwanted route or on another target.

The target of assay [3] is Nuclear receptor subfamily 5 group A member 2 (Homo sapiens, UniProt O00482). The class given is functional, cell-based.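 Note: HEK293T cells transfected with LRH-1 and a StAR promoter luciferase reporter; potency for inhibitors that lower LRH-1 driven reporter light.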
Assay [4] is described as follows: StAR promoter reporter inhibition counter-screen, dose response, counter-screen for LRH-1 inverse agonist project, cell-based, luminescence, luciferase reporter (AID 651969). It is filed as functional.
In assay [5] the target is ATP-dependent translocase ABCB1 (Homo sapiens, UniProt P08183). The assay can be described thus: ABCB1 efflux inhibitor potency, dose response, Jurkat-DNR cells, JC-1, flow cytometry, set 2 (AID 504569).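 Note: potency of pump inhibitors that raise cellular JC-1 green fluorescence up to the nicardipine level.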 The class given is functional. The conditions noted are these: read-out: EC50_MICROM_. Background: In flow cytometry, cells or beads pass a laser one at a time.
Assay [6] deals with H9c2. Description: cells. It is filed as functional, cell-based. The conditions noted are these: Rattus norvegicus, H9c2, Myocardium.
Assay [7] deals with HeLa. Description: HeLa cell cytotoxicity, dose response, cytotoxicity control, ATP luminescence, cherry-pick samples (AID 687004). The class given is functional, cell-based. The conditions noted are these: Homo sapiens.
In assay [8] the test system is Cryptococcus neoformans. The assay can be described thus: Cryptococcus growth inhibition by alamar blue – cell lysis, cherry-picks, replicate tests, mechanism study for C. neoformans antifungal project, dose response (AID 686999). It is filed as functional, organism-based.
Assay [9] addresses T1, Sentrin-specific protease 1 (Homo sapiens, UniProt Q9P0U3). Description: Dose response confirmation of small molecule inhibitors of the catalytic domain of the SUMO protease, SENP1 in a FRET assay. The class given is functional. The conditions noted are these: read-out: IC50_Mean.
Assay [10] deals with T1, Sentrin-specific protease 1. The assay can be described thus: potency of human SENP1 inhibitors, dose response, biochemical, kinetic FRET (AID 651697). The class given is functional. Particulars: read-out: IC50_Mean.
Assay [11] has as its target T2, Protein disulfide-isomerase (Homo sapiens, UniProt P07237). The assay can be described thus: PDI inhibitors, insulin turbidity readout, dose response, biochemical, absorbance, cherry-picked samples, set 2 (AID 624274). The class given is functional.
For assay [12], the target named is T2, Protein disulfide-isomerase. Description: PDI inhibitors, insulin aggregation turbidity, dose response, biochemical, absorbance, cherry-picked samples (AID 602350). It is filed as functional.
For assay [13], the target named is Tyrosine-protein phosphatase non-receptor type 5 (Homo sapiens, UniProt P54829). Description: STEP phosphatase inhibitors, confirmation, biochemical, fluorescence intensity, uHTS hits (AID 602372). It is filed as functional. The conditions noted are these: read-out: IC50_Mean.
The target of assay [14] is Dual specificity protein phosphatase 3 (Homo sapiens, UniProt P51452). Description: VHR phosphatase inhibition, dose response, selectivity assay for STEP inhibitor project, biochemical (AID 602374). It is filed as functional. The conditions noted are these: read-out: IC50_Mean.
The target in assay [15] is Tyrosine-protein phosphatase non-receptor type 11 (Homo sapiens, UniProt Q06124). The assay can be described thus: SHP2 phosphatase inhibition, dose response, selectivity assay for STEP inhibitor project, biochemical (AID 602367). Particulars: read-out: IC50_Mean. It is filed as functional.
For assay [16], the target named is T3, Low molecular weight phosphotyrosine protein phosphatase (Homo sapiens, UniProt P24666).
T3 sequence (P24666 whole entry): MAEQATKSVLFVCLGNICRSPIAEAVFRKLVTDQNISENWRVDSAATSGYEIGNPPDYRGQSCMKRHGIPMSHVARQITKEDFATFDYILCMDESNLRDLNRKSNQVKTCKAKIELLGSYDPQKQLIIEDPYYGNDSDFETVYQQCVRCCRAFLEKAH
It is filed as functional. Particulars: read-out: IC50_Mean.

Assay [17] has as its target T3, Low molecular weight phosphotyrosine protein phosphatase. It is filed as functional. The conditions noted are these: read-out: IC50_Mean. This is another data set of the same source.
Assay [18] has as its target T4, Tyrosine-protein phosphatase non-receptor type 22 (Homo sapiens, UniProt Q9Y2R2).
T4 sequence (Q9Y2R2 whole entry): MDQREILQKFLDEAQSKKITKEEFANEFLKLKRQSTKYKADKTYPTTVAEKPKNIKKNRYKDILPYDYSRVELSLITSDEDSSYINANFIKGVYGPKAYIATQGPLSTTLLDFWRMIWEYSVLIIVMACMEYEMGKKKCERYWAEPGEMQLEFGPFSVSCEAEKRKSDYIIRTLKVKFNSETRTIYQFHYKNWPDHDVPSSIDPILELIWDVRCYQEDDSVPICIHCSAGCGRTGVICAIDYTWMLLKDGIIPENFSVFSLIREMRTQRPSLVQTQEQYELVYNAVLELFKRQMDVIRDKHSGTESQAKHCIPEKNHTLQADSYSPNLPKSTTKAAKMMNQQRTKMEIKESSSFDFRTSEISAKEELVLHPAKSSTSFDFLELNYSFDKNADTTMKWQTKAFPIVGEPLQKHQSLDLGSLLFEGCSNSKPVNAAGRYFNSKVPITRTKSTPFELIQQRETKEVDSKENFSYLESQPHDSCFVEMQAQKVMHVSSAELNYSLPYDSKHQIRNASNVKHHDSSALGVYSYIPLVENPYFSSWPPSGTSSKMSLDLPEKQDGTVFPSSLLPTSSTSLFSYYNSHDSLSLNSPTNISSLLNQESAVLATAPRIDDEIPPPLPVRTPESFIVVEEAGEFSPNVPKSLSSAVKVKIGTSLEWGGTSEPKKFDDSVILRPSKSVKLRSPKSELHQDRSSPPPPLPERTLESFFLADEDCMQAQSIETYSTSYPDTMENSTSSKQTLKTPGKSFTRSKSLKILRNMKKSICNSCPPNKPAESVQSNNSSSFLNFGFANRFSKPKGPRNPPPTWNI
The assay can be described thus: PTPN22 phosphatase inhibition, dose response, selectivity assay for STEP inhibitor project, biochemical (AID 624241). The class given is functional.

Assay [19] can be described thus: inhibitors of HIV Env-driven cell fusion, dose response, cherry-pick (AID 652057). The class given is functional, cell-based.
Assay [20] has as its system HEK293. Description: cells. The class given is functional, cell-based. Particulars: Homo sapiens.
For assay [21], the system named is HEK293. Description: cells. The conditions noted are these: Homo sapiens. The class given is functional, cell-based. This is another data set of the same source.
For assay [22], the target named is Nucleotide-binding oligomerization domain-containing protein 2 (Homo sapiens, UniProt Q9HC29). The assay can be described thus: NOD2 signaling inhibitors, cell-based, luminescence, uHTS, HEK293 (AID 1566). It is filed as functional.
A short description of assay [23]: inhibitors of clade B AD8 Env fusion, dose response, cell-based, cherry-pick (AID 652062).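 Note: luciferase signal from cell-cell fusion driven by HIV-1 clade B AD8 Env; potency is for inhibitors of fusion seen as a drop in luminescence.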 It is filed as functional.
For assay [24], the target named is T5, Interleukin-8 (Homo sapiens, UniProt P10145).
T5 sequence (P10145 whole entry): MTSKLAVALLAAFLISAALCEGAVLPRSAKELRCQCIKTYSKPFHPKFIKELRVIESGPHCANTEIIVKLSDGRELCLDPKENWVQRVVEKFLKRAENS
The assay can be described thus: Dose Response confirmation of uHTS small molecule hits for cystic fibrosis induced NFkb Inhibitors in a PAF-induced IL8 counterscreen. It is filed as functional. The conditions noted are these: read-out: IC50_Mean.

Assay [25] concerns HEK293. The assay can be described thus: NOD2 signaling inhibitors in MDP-stimulated cells, cell-based, uHTS, luminescence (AID 2001). Particulars: Homo sapiens. The class given is functional.
Assay [26] in a line: ZM109 Env clade C HIV-1 fusion inhibitors, dose response, HeLa effector, CEM target cells, luciferase, cherry-pick (AID 652058). The class given is functional, cell-based.
The nature of assay [27]: off-target signal loss in HeLa-CEM21 co-culture – HeLa F-luc CTL cells, cherry-picked, counter-screen for HIV-1 Env fusion inhibitor project, dose response (AID 652040).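 Note: potency for signal decrease marking cytotoxic or nonspecific inhibition.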 It is filed as functional, cell-based.
Assay [28] relates to HEK293. Description: NOD1 signaling inhibitors, primary screen, cell-based, luminescence, uHTS (AID 1578). The conditions noted are these: Homo sapiens. It is filed as functional.
The test system of assay [29] is HEK293. The assay can be described thus: cells. The class given is functional, cell-based. Particulars: Homo sapiens. This is another data set of the same source.

T1 sequence (Q9P0U3 whole entry, the tested form may be a part): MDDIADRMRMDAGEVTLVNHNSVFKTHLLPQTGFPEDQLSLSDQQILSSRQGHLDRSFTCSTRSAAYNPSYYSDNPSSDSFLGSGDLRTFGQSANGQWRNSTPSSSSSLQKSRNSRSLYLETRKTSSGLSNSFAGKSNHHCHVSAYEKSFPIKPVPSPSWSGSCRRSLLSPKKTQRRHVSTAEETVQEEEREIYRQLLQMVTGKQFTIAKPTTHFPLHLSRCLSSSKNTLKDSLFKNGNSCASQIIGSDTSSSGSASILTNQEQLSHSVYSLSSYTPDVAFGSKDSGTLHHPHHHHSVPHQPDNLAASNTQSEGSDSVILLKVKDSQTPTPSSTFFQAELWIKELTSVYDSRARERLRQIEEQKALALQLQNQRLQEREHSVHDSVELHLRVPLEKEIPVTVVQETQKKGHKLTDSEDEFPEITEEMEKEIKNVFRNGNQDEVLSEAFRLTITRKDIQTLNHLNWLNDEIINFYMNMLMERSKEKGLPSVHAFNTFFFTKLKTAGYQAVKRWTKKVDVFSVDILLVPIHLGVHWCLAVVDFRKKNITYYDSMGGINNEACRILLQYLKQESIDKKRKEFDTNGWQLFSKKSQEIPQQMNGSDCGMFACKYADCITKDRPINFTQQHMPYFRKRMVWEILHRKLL
T2 sequence (P07237 whole entry): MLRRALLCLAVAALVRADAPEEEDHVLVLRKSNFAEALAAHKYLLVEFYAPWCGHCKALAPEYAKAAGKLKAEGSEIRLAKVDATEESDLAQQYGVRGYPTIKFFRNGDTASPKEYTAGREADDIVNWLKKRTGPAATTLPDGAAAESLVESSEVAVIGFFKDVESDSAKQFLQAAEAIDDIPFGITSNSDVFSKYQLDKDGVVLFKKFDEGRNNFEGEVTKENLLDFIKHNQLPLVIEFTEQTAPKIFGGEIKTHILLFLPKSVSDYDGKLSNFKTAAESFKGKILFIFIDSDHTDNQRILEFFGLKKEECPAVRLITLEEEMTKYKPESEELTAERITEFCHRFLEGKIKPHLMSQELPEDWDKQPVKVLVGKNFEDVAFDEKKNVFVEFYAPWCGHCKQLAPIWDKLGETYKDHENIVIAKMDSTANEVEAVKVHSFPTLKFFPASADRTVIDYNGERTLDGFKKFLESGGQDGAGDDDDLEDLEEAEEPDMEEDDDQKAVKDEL
Sequence of ATP-dependent translocase ABCB1 (P08183 whole entry): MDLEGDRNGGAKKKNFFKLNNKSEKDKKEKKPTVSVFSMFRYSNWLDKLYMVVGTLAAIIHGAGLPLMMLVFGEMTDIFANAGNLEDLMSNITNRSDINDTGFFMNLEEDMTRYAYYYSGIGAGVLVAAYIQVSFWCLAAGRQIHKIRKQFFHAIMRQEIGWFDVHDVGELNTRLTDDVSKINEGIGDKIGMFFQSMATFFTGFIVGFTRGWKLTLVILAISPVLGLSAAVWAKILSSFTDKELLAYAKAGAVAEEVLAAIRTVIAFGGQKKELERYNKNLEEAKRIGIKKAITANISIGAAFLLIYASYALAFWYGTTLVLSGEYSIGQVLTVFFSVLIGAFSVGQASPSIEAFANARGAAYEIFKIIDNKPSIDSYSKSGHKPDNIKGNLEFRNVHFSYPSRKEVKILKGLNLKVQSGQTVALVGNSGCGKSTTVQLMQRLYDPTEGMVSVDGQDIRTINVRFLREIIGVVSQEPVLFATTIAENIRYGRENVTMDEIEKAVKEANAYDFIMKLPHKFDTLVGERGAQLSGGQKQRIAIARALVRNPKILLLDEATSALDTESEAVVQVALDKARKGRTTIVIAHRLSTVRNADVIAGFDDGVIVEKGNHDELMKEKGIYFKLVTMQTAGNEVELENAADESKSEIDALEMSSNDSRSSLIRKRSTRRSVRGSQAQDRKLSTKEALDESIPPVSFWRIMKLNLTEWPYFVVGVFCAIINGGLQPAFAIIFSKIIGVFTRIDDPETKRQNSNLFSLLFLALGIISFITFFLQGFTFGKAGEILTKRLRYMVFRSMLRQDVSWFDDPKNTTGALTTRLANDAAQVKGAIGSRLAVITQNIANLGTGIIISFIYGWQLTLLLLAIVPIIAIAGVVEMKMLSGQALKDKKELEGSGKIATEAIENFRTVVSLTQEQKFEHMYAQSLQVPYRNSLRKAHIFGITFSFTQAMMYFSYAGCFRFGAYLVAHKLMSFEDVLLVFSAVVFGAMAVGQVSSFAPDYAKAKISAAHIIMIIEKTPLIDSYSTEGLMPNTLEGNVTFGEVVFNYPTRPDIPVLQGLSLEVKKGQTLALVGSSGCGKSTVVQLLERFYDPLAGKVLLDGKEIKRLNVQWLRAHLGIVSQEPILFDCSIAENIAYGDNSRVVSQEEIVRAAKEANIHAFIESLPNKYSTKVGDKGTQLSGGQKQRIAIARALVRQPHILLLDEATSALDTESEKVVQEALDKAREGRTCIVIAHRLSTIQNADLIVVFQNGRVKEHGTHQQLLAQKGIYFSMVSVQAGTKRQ
Sequence of Nucleotide-binding oligomerization domain-containing protein 2 (Q9HC29 whole entry, the tested form may be a part): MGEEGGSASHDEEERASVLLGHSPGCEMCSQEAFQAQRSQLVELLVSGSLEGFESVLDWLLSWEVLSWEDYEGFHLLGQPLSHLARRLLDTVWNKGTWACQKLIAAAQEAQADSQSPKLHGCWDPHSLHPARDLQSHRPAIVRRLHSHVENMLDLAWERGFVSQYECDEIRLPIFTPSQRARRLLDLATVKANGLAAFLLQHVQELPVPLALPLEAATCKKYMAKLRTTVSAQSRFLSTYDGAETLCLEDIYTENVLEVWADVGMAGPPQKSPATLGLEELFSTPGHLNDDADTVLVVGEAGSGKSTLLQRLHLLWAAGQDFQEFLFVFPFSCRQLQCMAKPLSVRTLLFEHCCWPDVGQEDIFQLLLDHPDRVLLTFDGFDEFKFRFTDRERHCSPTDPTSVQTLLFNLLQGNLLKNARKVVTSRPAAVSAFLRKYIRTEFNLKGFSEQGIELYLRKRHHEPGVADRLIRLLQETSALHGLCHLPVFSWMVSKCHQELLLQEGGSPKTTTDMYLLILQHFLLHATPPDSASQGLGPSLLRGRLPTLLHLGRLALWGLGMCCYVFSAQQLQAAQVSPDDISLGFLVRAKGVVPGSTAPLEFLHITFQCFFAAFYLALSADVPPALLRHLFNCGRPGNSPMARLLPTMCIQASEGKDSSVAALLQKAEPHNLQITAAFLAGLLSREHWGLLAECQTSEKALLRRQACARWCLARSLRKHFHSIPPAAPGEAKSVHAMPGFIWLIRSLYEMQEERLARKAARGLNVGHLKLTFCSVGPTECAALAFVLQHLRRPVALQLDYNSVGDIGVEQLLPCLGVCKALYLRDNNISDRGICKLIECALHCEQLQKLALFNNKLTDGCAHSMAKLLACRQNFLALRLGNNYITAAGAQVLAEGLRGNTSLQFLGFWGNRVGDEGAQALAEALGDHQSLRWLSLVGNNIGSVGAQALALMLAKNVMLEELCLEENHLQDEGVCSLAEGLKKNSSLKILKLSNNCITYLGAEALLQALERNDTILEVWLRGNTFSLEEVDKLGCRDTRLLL
Sequence of Nuclear receptor subfamily 5 group A member 2 (O00482 whole entry): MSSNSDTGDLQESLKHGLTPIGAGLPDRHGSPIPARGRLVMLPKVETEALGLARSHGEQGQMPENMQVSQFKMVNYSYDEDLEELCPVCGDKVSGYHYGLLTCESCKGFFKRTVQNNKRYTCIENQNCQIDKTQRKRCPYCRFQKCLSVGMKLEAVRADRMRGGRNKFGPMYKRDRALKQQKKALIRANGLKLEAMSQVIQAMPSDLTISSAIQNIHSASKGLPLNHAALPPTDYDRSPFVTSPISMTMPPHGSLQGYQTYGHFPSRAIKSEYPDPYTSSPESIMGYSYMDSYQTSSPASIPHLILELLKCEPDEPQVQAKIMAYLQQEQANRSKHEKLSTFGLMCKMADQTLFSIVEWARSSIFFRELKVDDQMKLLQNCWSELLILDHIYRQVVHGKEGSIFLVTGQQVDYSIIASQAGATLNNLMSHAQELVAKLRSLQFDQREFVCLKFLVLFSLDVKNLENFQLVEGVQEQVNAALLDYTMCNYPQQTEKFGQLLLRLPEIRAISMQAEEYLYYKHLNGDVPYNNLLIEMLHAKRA
Sequence of Tyrosine-protein phosphatase non-receptor type 11 (Q06124 whole entry): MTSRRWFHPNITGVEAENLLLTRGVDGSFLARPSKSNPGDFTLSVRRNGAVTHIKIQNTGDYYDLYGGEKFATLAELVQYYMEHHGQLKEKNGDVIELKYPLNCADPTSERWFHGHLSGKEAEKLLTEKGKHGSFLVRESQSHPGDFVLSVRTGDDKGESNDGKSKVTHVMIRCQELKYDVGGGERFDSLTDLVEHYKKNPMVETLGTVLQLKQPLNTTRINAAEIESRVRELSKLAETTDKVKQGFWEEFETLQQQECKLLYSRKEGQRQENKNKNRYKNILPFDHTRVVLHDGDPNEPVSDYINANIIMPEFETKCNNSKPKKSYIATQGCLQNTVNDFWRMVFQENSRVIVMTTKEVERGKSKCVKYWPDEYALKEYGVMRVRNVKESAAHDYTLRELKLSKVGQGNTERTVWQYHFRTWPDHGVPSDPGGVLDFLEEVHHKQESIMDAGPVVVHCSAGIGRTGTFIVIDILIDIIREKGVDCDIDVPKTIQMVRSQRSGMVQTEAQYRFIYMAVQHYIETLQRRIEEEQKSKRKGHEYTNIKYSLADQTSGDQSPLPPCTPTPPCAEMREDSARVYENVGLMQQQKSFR
Sequence of Steroidogenic factor 1 (Q13285 whole entry): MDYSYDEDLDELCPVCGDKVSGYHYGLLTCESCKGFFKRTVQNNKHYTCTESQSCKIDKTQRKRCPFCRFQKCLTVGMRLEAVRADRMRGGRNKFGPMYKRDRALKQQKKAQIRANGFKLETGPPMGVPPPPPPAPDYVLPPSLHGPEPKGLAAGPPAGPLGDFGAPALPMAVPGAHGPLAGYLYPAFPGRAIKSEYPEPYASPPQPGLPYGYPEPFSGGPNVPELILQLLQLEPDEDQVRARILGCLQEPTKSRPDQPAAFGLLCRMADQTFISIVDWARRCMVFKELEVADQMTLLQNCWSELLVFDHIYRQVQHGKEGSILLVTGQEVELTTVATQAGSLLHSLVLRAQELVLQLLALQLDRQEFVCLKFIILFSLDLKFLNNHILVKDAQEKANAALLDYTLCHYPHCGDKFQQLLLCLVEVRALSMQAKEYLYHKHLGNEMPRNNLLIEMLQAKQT

As for `Cc1c(C(=O)O)sc2nc(/C=C/c3cccc(O)c3)nc(O)c12`, the AC50 – broadly, the concentration giving half of the maximal activity seen – in assay [1] is 4.58 µM (active).

On to `COc1cc(C(=O)Nc2ccccc2N2CCN(S(C)(=O)=O)CC2)cc(OC)c1OC`, for which the results for the IC50 in assay [2], in assay [3] and in assay [4] were 7.65 µM (active), 14.6 µM (inactive) and 35.9 µM (inactive), respectively.

For the molecule `COc1ccc(-c2cc3nc(-c4ccccc4)cc(N4CCN(C(=O)c5ccoc5)CC4)n3n2)cc1`, the EC50 in [5] was 0.94 µM (active). Also, the IC50 in assay [6] was > 79 µM (inactive).

With `COC(=O)C1=C(C)N(Cc2ccc(F)cc2)C(=S)NC1c1ccc(F)cc1` (centres undefined), the AC50 in [7] is > 52 µM (inactive); in assay [8], 56.1 µM (active).

For the molecule `Cc1nc2nonc2c2nccc(O)c12`, the values for the IC50 in assay [9] and in [10] were 8.04 µM (active) and 8.83 µM (active), respectively.

Consider `CC1Cc2ccccc2N1C(=O)CSc1nnc2sc3ccccc3n12` (centres undefined), for which the AC50 was 0.009 µM (active) in [11] and < 0.009 µM (active) in assay [12].

In the case of `C/C(=N\NC(=O)c1ccccc1O)c1ccc(NC(=O)Cc2ccccc2)cc1`, the IC50 in [13] was 12.8 µM (active); in assay [14] it was 2.38 µM (active); in [15], 2.01 µM (active); in assay [16], 15.9 µM (active); in assay [17], 14.2 µM (active); in assay [18] it was > 100 µM (inactive).

Consider `Cn1c(=O)c2c(nc(Oc3ccc4ccccc4c3)n2C)n(C)c1=O`, for which the AC50 in assay [19] is 11.6 µM (active); in [23], 2.05 µM (active); in [26], 40.2 µM (active); in [27], 18.4 µM (active). Besides, the IC50 in assay [20] is 3.32 µM (active); in [21], > 20 µM (inactive); in assay [24], 14 µM (inactive); in assay [25], 3.88 µM (active); in assay [29], > 20 µM (inactive). The EC50 in assay [22] was 4.28 µM (active); in assay [28], 6.6 µM (active).
